# Results reported in ChEMBL document CHEMBL1201862, “PubChem BioAssay data set” (2004).
#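 Protocol summary: plate cells (96-well), add compound at 5 concentrations, incubate 48 h, interpolate endpoints linearly. Here, GI50 denotes the concentration required for 50% inhibition of growth.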 The source made the active and inactive calls. Rule as the data show it: active = GI50 up to about 1.1 µM and inactive = higher.
# Assays:
# Assay in all cases: inhibition of tumour cell growth, NCI panel, 48 h
# 786-0 = test system: 786-0
# A498 = test system: A498
# A549 = test system: A549
# ACHN = test system: ACHN
# BT-549 = test system: BT-549
# CAKI-1 = test system: CAKI-1
# CCRF-CEM = test system: CCRF-CEM
# COLO 205 = test system: COLO 205
# DU-145 = test system: DU-145
# EKVX = test system: EKVX
# HCT-116 = test system: HCT-116
# HCT-15 = test system: HCT-15
# HL-60 = test system: HL-60
# HOP-62 = test system: HOP-62
# HOP-92 = test system: HOP-92
# HT-29 = test system: HT-29
# Hs-578T = test system: Hs-578T
# IGROV-1 = test system: IGROV-1
# K562 = test system: K562
# KM12 = test system: KM12
# LOX IMVI = test system: LOX IMVI
# M14 = test system: M14
# MCF7 = test system: MCF7
# MDA-MB-231 = test system: MDA-MB-231
# MDA-MB-435 = test system: MDA-MB-435
# MDA-N = test system: MDA-N
# MOLT-4 = test system: MOLT-4
# Malme-3M = test system: Malme-3M
# NCI-H226 = test system: NCI-H226
# NCI-H23 = test system: NCI-H23
# NCI-H522 = test system: NCI-H522
# NCI/ADR-RES = test system: NCI/ADR-RES
# OVCAR-3 = test system: OVCAR-3
# OVCAR-4 = test system: OVCAR-4
# OVCAR-5 = test system: OVCAR-5
# OVCAR-8 = test system: OVCAR-8
# PC-3 = test system: PC-3
# RPMI-8226 = test system: RPMI-8226
# RXF 393 = test system: RXF 393
# SF-268 = test system: SF-268
# SF-295 = test system: SF-295
# SF-539 = test system: SF-539
# SK-MEL-28 = test system: SK-MEL-28
# SK-MEL-2 = test system: SK-MEL-2
# SK-MEL-5 = test system: SK-MEL-5
# SN12C = test system: SN12C
# SNB-19 = test system: SNB-19
# SW-620 = test system: SW-620
# T47D = test system: T47D
# TK-10 = test system: TK-10
# U-251 = test system: U-251
# UACC-257 = test system: UACC-257
# UACC-62 = test system: UACC-62
# UO-31 = test system: UO-31
# HCC 2998 = test system: HCC 2998
# NCI-H460 = test system: NCI-H460
# SNB-75 = test system: SNB-75
# SK-OV-3 = test system: SK-OV-3
# SR = test system: SR
smiles,measurement,setting,value
CC1S/C(=N/c2nnc(-c3ccccc3)o2)NC1=O (stereo not drawn),GI50,786-0,28.3 µM (inactive)
same,GI50,A498,> 100 µM (inactive)
same,GI50,A549,37.6 µM (inactive)
same,GI50,ACHN,46.5 µM (inactive)
same,GI50,BT-549,71.4 µM (inactive)
same,GI50,CAKI-1,> 100 µM (inactive)
same,GI50,CCRF-CEM,14.5 µM (inactive)
same,GI50,COLO 205,47.1 µM (inactive)
same,GI50,DU-145,81.3 µM (inactive)
same,GI50,EKVX,27 µM (inactive)
same,GI50,HCT-116,17.7 µM (inactive)
same,GI50,HCT-15,30.4 µM
same,GI50,HL-60,36.7 µM (inactive)
same,GI50,HOP-62,26.7 µM (inactive)
same,GI50,HOP-92,> 100 µM (inactive)
same,GI50,HT-29,27.7 µM (inactive)
same,GI50,Hs-578T,> 100 µM (inactive)
same,GI50,IGROV-1,43.9 µM (inactive)
same,GI50,K562,48 µM (inactive)
same,GI50,KM12,46.1 µM (inactive)
same,GI50,LOX IMVI,35.5 µM (inactive)
same,GI50,M14,21.5 µM (inactive)
same,GI50,MCF7,44 µM (inactive)
same,GI50,MDA-MB-231,43.3 µM (inactive)
same,GI50,MDA-MB-435,39.1 µM (inactive)
same,GI50,MDA-N,32.7 µM (inactive)
same,GI50,MOLT-4,30.5 µM (inactive)
same,GI50,Malme-3M,41.4 µM (inactive)
same,GI50,NCI-H226,> 100 µM (inactive)
same,GI50,NCI-H23,94.8 µM (inactive)
same,GI50,NCI-H522,28 µM (inactive)
same,GI50,NCI/ADR-RES,36.6 µM (inactive)
same,GI50,OVCAR-3,18.5 µM (inactive)
same,GI50,OVCAR-4,31.2 µM (inactive)
same,GI50,OVCAR-5,> 100 µM (inactive)
same,GI50,OVCAR-8,43.6 µM (inactive)
same,GI50,PC-3,38.5 µM (inactive)
same,GI50,RPMI-8226,49 µM (inactive)
same,GI50,RXF 393,61.7 µM (inactive)
same,GI50,SF-268,34.5 µM (inactive)
same,GI50,SF-295,18.3 µM (inactive)
same,GI50,SF-539,30.2 µM (inactive)
same,GI50,SK-MEL-28,74.6 µM (inactive)
same,GI50,SK-MEL-2,69.5 µM (inactive)
same,GI50,SK-MEL-5,35.9 µM (inactive)
same,GI50,SN12C,36.1 µM (inactive)
same,GI50,SNB-19,55.6 µM (inactive)
same,GI50,SW-620,46 µM (inactive)
same,GI50,T47D,61.1 µM (inactive)
same,GI50,TK-10,58.7 µM (inactive)
same,GI50,U-251,26.6 µM (inactive)
same,GI50,UACC-257,53.8 µM (inactive)
same,GI50,UACC-62,52.6 µM (inactive)
same,GI50,UO-31,30.2 µM (inactive)
Cc1cc2c([nH]c3ccccc32)c(O)c1-c1c(C)cc2c([nH]c3ccccc32)c1O,GI50,786-0,13.7 µM (inactive)
same,GI50,A549,12.1 µM (inactive)
same,GI50,ACHN,14.3 µM (inactive)
same,GI50,BT-549,18.8 µM (inactive)
same,GI50,DU-145,13 µM (inactive)
same,GI50,EKVX,13.8 µM (inactive)
same,GI50,HCC 2998,10.6 µM (inactive)
same,GI50,HCT-116,14.2 µM (inactive)
same,GI50,HOP-62,17.1 µM (inactive)
same,GI50,HOP-92,15.7 µM (inactive)
same,GI50,Hs-578T,15.3 µM (inactive)
same,GI50,IGROV-1,12.4 µM (inactive)
same,GI50,KM12,10.1 µM (inactive)
same,GI50,LOX IMVI,16.7 µM (inactive)
same,GI50,M14,14.8 µM (inactive)
same,GI50,MDA-MB-231,17.5 µM (inactive)
same,GI50,NCI-H226,18.5 µM (inactive)
same,GI50,NCI-H460,4.57 µM (inactive)
same,GI50,NCI-H522,16.7 µM (inactive)
same,GI50,NCI/ADR-RES,13.9 µM (inactive)
same,GI50,OVCAR-3,15.8 µM (inactive)
same,GI50,OVCAR-4,15.3 µM (inactive)
same,GI50,OVCAR-8,15.7 µM (inactive)
same,GI50,PC-3,13.2 µM (inactive)
same,GI50,RXF 393,10.5 µM (inactive)
same,GI50,SF-268,13.8 µM (inactive)
same,GI50,SF-539,17 µM (inactive)
same,GI50,SK-MEL-28,30.5 µM (inactive)
same,GI50,SK-MEL-2,15.8 µM (inactive)
same,GI50,SN12C,2.48 µM (inactive)
same,GI50,SNB-19,16.9 µM (inactive)
same,GI50,SNB-75,14 µM (inactive)
same,GI50,SW-620,22.9 µM (inactive)
same,GI50,T47D,15.5 µM (inactive)
same,GI50,TK-10,17.4 µM (inactive)
same,GI50,U-251,11.5 µM (inactive)
same,GI50,UACC-257,16.5 µM (inactive)
COc1ccc(Nc2nc(N)c(C(=O)c3ccccc3)s2)cc1,GI50,786-0,0.0494 µM (active)
same,GI50,A498,5.66 µM (inactive)
same,GI50,A549,0.152 µM (active)
same,GI50,ACHN,7.67 µM (inactive)
same,GI50,BT-549,1.33 µM (inactive)
same,GI50,CAKI-1,0.0342 µM (active)
same,GI50,CCRF-CEM,0.0226 µM (active)
same,GI50,COLO 205,0.0398 µM (active)
same,GI50,DU-145,0.178 µM (active)
same,GI50,EKVX,0.142 µM (active)
same,GI50,HCC 2998,0.227 µM (active)
same,GI50,HCT-116,0.0267 µM (active)
same,GI50,HCT-15,0.0471 µM
same,GI50,HL-60,< 0.01 µM (active)
same,GI50,HOP-62,16.7 µM (inactive)
same,GI50,HOP-92,33.6 µM (inactive)
same,GI50,HT-29,0.0162 µM (active)
same,GI50,Hs-578T,0.0826 µM (active)
same,GI50,IGROV-1,0.273 µM (active)
same,GI50,K562,0.0102 µM (active)
same,GI50,KM12,0.143 µM (active)
same,GI50,LOX IMVI,0.0524 µM (active)
same,GI50,MCF7,0.54 µM (active)
same,GI50,MDA-MB-435,< 0.01 µM (active)
same,GI50,MDA-N,< 0.01 µM (active)
same,GI50,MOLT-4,< 0.0238 µM (active)
same,GI50,Malme-3M,45.2 µM (inactive)
same,GI50,NCI-H226,0.0935 µM (active)
same,GI50,NCI-H23,0.232 µM (active)
same,GI50,NCI-H460,0.0289 µM (active)
same,GI50,NCI-H522,0.0148 µM (active)
same,GI50,NCI/ADR-RES,< 0.01 µM (active)
same,GI50,OVCAR-3,0.0607 µM (active)
same,GI50,OVCAR-4,2.44 µM (inactive)
same,GI50,OVCAR-5,19.5 µM (inactive)
same,GI50,OVCAR-8,0.139 µM (active)
same,GI50,PC-3,0.0396 µM (active)
same,GI50,RPMI-8226,0.0681 µM (active)
same,GI50,RXF 393,0.19 µM (active)
same,GI50,SF-268,0.839 µM (active)
same,GI50,SF-295,0.0164 µM (active)
same,GI50,SF-539,0.0129 µM (active)
same,GI50,SK-MEL-28,44.4 µM (inactive)
same,GI50,SK-MEL-2,0.054 µM (active)
same,GI50,SK-MEL-5,0.0689 µM (active)
same,GI50,SK-OV-3,0.0865 µM (active)
same,GI50,SN12C,0.0811 µM (active)
same,GI50,SNB-19,0.037 µM (active)
same,GI50,SNB-75,0.0258 µM (active)
same,GI50,SR,< 0.01 µM (active)
same,GI50,SW-620,0.0197 µM (active)
same,GI50,T47D,40.2 µM (inactive)
same,GI50,TK-10,23.8 µM (inactive)
same,GI50,U-251,0.0302 µM (active)
same,GI50,UACC-257,29.5 µM (inactive)
same,GI50,UACC-62,0.05 µM (active)
same,GI50,UO-31,0.0912 µM (active)
